Among the data in publication PMC11992111 (Nature Communications, 2025) are Kd values, retold here.

Structures are written as SMILES.

Holding throughout (assay type): binding
The target of assay [1] is T1, AZG2 (Arabidopsis thaliana, UniProt Q84MA8).
T1 sequence (Q84MA8 1-530): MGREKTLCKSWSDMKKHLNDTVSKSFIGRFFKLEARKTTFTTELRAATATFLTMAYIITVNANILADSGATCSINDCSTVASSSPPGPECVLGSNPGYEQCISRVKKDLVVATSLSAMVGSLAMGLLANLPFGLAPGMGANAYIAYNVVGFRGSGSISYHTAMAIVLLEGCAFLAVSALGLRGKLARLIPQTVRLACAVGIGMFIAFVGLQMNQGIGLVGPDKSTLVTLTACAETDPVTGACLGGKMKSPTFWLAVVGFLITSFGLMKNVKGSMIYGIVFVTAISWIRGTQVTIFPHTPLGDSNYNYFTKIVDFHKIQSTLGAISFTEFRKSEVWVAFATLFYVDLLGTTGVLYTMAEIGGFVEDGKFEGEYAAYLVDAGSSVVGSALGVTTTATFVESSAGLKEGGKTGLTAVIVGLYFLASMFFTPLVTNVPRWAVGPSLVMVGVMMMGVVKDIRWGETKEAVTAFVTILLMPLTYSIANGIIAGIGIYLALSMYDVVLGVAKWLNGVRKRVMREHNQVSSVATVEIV
Description: ITC.

The target of assay [2] is T1, AZG2. Description: ITC at pH […].
A further assay concerns the target AZG1 (Arabidopsis thaliana, UniProt Q9SRK7). The assay is described as follows: ITC at pH […].

One may read the Kd as the constant that tells how readily two partners part at equilibrium. A higher Kd goes with weaker binding. For the compound `c1coc(CNc2ncnc3[nH]cnc23)c1` [kinetin], the Kd at AZG2 [1] came out at 710 ± 90 nM.

As to `CC(C)=CCNc1ncnc2nc[nH]c12` [iP, N^6-(Δ^2-isopentenyl)adenine], the Kd on AZG2 [1] stood at 710 ± 80 nM.

As for `Nc1ncnc2nc[nH]c12` [adenine], the Kd at AZG2 [2] stood at 770 ± 90 nM; on AZG1, 620 ± 110 nM.

As to `c1ccc(CNc2ncnc3nc[nH]c23)cc1` [BA, benzyladenine], binding at AZG2 [1] was characterised by a dissociation constant (Kd) of 2090 ± 470 nM.
